According to PubChem BioAssay (NCI):
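All cell lines were grown in 96-well plates and treated with compound for 48 hours. The concentration for full growth arrest is given as TGI.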

How the values were obtained:
Assay in all cases: inhibition of tumour cell growth, NCI panel, 48 h
[1] = system: DU-145 prostate
[2] = system: OVCAR-3 ovarian
[3] = system: MDA-MB-231 breast
[4] = system: ACHN renal
[5] = system: HL-60(TB) leukemia
[6] = system: T-47D breast
[7] = system: NCI-H460 lung
[8] = system: SK-MEL-28 melanoma
[9] = system: A498 renal
[10] = system: PC-3 prostate
[11] = system: CAKI-1 renal
[12] = system: MOLT-4 leukemia
[13] = system: HT29 colon
[14] = system: TK-10 renal
[15] = system: HOP-92 NSCLC
[16] = system: NCI-H23 lung
[17] = system: OVCAR-8 ovarian
[18] = system: NCI-H226 lung
[19] = system: MCF7 breast
[20] = system: HCT-15 colon
[21] = system: OVCAR-4 ovarian
[22] = system: SNB-75 CNS
[23] = system: M14 melanoma
[24] = system: SR leukemia
[25] = system: HCC-2998 colon
[26] = system: HCT-116 colon
[27] = system: SNB-19 CNS
[28] = system: HOP-62 NSCLC
[29] = system: IGROV1 ovarian
[30] = system: UACC-257 melanoma
[31] = system: CCRF-CEM leukemia
[32] = system: SF-268 CNS
[33] = system: SW-620 colon
[34] = system: RXF 393 renal
[35] = system: SF-539 CNS
[36] = system: KM12 colon
[37] = system: HS 578T breast
[38] = system: SF-295 CNS
[39] = system: SK-MEL-5 melanoma
[40] = system: BT-549 breast
[41] = system: A549 NSCLC
[42] = system: MDA-MB-435
[43] = system: LOX IMVI melanoma
[44] = system: EKVX NSCLC
[45] = system: MALME-3M melanoma
[46] = system: SK-OV-3 ovarian
[47] = system: UACC-62 melanoma
[48] = system: 786-0 renal
[49] = system: NCI/ADR-RES ovarian
[50] = system: OVCAR-5 ovarian
[51] = system: UO-31 renal
[52] = system: NCI-H522 lung
[53] = system: COLO 205 colon
[54] = system: RPMI-8226 leukemia
[55] = system: SN12C renal
[56] = system: MDA-N
[57] = system: U251 CNS
[58] = system: K-562 leukemia
[59] = system: SK-MEL-2 melanoma
[60] = system: RXF-631 renal
[61] = system: DLD-1 colon
[62] = system: XF 498 CNS
[63] = system: DMS 273 small cell lung
[64] = system: LXFL 529 NSCLC
[65] = system: M19-MEL melanoma
[66] = system: DMS 114 small cell lung

C=C1C(=O)OC2/C=C(\CO)CC/C=C(\CO)CC(OC(=O)C(C)C)C12 (configuration not stated)
TGI [1]: 29.5 µM | TGI [2]: 23.9 µM | TGI [3]: 38 µM | TGI [4]: 3.54 µM | TGI [5]: > 24.8 µM | TGI [6]: 24.8 µM | TGI [7]: 38.6 µM | TGI [8]: 42.4 µM | TGI [9]: 59.2 µM | TGI [10]: 31.1 µM | TGI [11]: 3.31 µM | TGI [12]: > 27.4 µM | TGI [13]: 30 µM | TGI [14]: 15.6 µM | TGI [15]: 4.13 µM | TGI [16]: 38.5 µM | TGI [17]: 45.7 µM | TGI [18]: 34.2 µM | TGI [19]: 8.85 µM | TGI [20]: 11.6 µM | TGI [21]: 44 µM | TGI [22]: 32.2 µM | TGI [23]: 19.9 µM | TGI [24]: > 52.1 µM | TGI [25]: 37.2 µM | TGI [26]: 47.9 µM | TGI [27]: 45.9 µM | TGI [28]: 36.3 µM | TGI [29]: 33.6 µM | TGI [30]: 27 µM | TGI [31]: > 33.2 µM | TGI [32]: 19.8 µM | TGI [33]: 22.9 µM | TGI [34]: 19.3 µM | TGI [35]: 29 µM | TGI [36]: 33.5 µM | TGI [37]: 49 µM | TGI [38]: 45.5 µM | TGI [39]: 36 µM | TGI [40]: 23.4 µM | TGI [41]: 37 µM | TGI [42]: 29.5 µM | TGI [43]: 45.8 µM | TGI [44]: 38.8 µM | TGI [45]: 4.45 µM | TGI [46]: > 55.9 µM | TGI [47]: 29.4 µM | TGI [48]: 20.2 µM | TGI [49]: 45.3 µM | TGI [50]: 29.8 µM | TGI [51]: 27.4 µM | TGI [52]: 4.11 µM | TGI [53]: 4.18 µM | TGI [54]: 25.5 µM | TGI [55]: 26.1 µM | TGI [56]: 17.9 µM | TGI [57]: 43.3 µM | TGI [58]: > 24.2 µM | TGI [59]: 30.8 µM

Cc1ncc(CCl)c(CCl)c1O
TGI [4]: > 100 µM | TGI [5]: > 100 µM | TGI [60]: > 100 µM | TGI [8]: > 100 µM | TGI [9]: > 100 µM | TGI [11]: > 100 µM | TGI [12]: > 100 µM | TGI [61]: > 100 µM | TGI [15]: > 100 µM | TGI [16]: > 100 µM | TGI [18]: > 100 µM | TGI [62]: > 100 µM | TGI [21]: > 100 µM | TGI [22]: > 100 µM | TGI [23]: > 100 µM | TGI [24]: > 100 µM | TGI [25]: > 100 µM | TGI [26]: > 100 µM | TGI [63]: > 100 µM | TGI [28]: > 100 µM | TGI [64]: > 100 µM | TGI [29]: > 100 µM | TGI [31]: > 100 µM | TGI [32]: > 100 µM | TGI [35]: > 100 µM | TGI [45]: > 100 µM | TGI [46]: > 100 µM | TGI [47]: > 100 µM | TGI [48]: > 100 µM | TGI [51]: > 100 µM | TGI [52]: > 100 µM | TGI [53]: > 100 µM | TGI [54]: > 100 µM | TGI [55]: > 100 µM | TGI [65]: > 100 µM | TGI [58]: > 100 µM | TGI [59]: > 100 µM | TGI [66]: > 100 µM
